Data from patent publication EP4778522A1, “USE OF PYRROLOPYRIMIDINE COMPOUND AND COMPOSITION THEREOF” (Guangzhou Joyo Pharmatech Co., Ltd., priority 2023, dated 2025).
Several values for one entry are separate records, joined by “and”; a condition that tells them apart may be missing. Equal entries are not always repeated. Marks after values point to notes of the source that are not given here.

Assays:
[1] = tested on: imiquimod-induced C3H/HeJ mice alopecia areata model; test: Imiquimod-induced mouse alopecia areata model: hair growth; assay type: in vivo; conditions: Baricitinib 10 mg/kg oral by gavage twice a day for one month, Day 30; for Newly grown hair score: score 0-5
Description: • 1) Animals: female C3H/He mice, SPF, aged 6-8 weeks at grouping. The animals were provided by Beijing Viewsolid Biotech. • 2) Reagents, positive drugs and test drugs
After one week of adaptive feeding of C3H/HeJ mice: modeling was performed by applying imiquimod ointment to the neck, 3 times a week. The mice were carefully taken out, and about 0.05 g of 5% imiquimod ointment was dipped with a clean medical cotton swab and then applied evenly to the skin on the neck over a range of about 1.5 cm×1.5 cm. Before each application, the local part was cleaned by normal saline to remove the residual drug in the previous time. The continuous administration time was no longer than 10 weeks. When alopecia areata with an area size > 1 cm×1 cm was formed at the administration part, the administration was stopped, proving that a preparation model was successful. The mice in the normal control group were modeled by using blank ointment (vaseline ointment).
During the period from the first administration to the end of the last administration after the alopecia areata modeling was successful, the alopecia areata part of each mouse was photographed once every 3 days, the photographing distance, angle and magnification times were fixed, and the hair growth of the alopecic areas on the backs of the mice was recorded.
Visual quantification of the alopecia area images was performed using ImageJ software. The hair growth area (a) and hair loss area (b) were calculated. The hair growth rate was counted and analyzed: hair growth rate (%) = (a/b)* 100%. The newly grown hairs at the alopecia areata part of the mice in each group were scored based on the hair growth rate. Table 14 Scoring criteria of newly grown hairs

[2] = tested on: imiquimod-induced C3H/HeJ mice alopecia areata model; test: Imiquimod-induced mouse alopecia areata model: number of hair follicles in skin; assay type: in vivo; conditions: Baricitinib 10 mg/kg oral by gavage twice a day for one month, skin at alopecia areata part
Description: After the animals were anesthetized and euthanized, the complete skin tissue of the alopecic area was cut along the junction between the normal skin of the back of the mouse and the alopecic area and perpendicular to the skin surface. A part of the tissue was taken, conventionally dehydrated and embedded. The remaining tissue was stored in a refrigerator at -80°C for later use.
The embedded skin tissue was cut into 3 µm-thick sections, and then the sections were dewaxed in xylene, hydrated by gradient ethanol, H&E stained, dehydrated, cleared and mounted. The hair follicles in skin tissue sections from each group were microscopically observed and photographed. The mean number of the hair follicles was calculated using Image J software.

[3] = tested on: monobenzone-induced mouse vitiligo model; test: Monobenzone-induced mouse vitiligo model: hair depigmentation area scoring; assay type: in vivo, C57BL/6 mice; set-up: Hair depigmentation area scoring: scale not given here
Description: • 1) Animals: C57BL/6 mice, specific pathogen-free (SPF), with equal numbers of females and males. The mice were 6-8 weeks old at grouping, with 10 mice per group. The animals were provided by Charles River Laboratories. • 2) Reagents, positive drugs and test drugs
Monobenzone induction method: after 1 week of adaptive feeding of all the animals, modeling was performed and all black hairs on the back of the mice were removed by a shaver. 10 animals were randomly selected as a normal control group and applied with 50 mg of vaseline once a day; and the remaining 80 animals were used for modeling and applied with 50 mg of 40% monobenzone depigmentation ointment once a day. The applying area of the normal control group and the model group was 2 cm*3 cm of the fixed part of the back, and the modeling was continuously performed for 103 days. In order to prevent the phenomenon that the animals lick the drugs, after the animals were applied with a modeling agent, they needed to be separately placed in an independent cage without padding for a period of time to naturally dry the modeling agent, and then they were placed in a rearing cage for normal rearing. During the modeling process, new hairs grown in the alopecic areas of the backs of the mice were shaved by the shaver and then applied with the drug.
The 40% monobenzone depigmentation ointment was applied every day. After modeling for 53 days, according to a depigmentation area score (see scoring criteria of Table 9), 70 animals successfully modeled in modeling group (score ≥ 2) were randomly divided into 7 groups with 10 mice per group. The mean depigmentation area score of the animals in each group was basically consistent before the administration, and the day of grouping was defined as day 0 of the administration treatment period. Table 8 Grouping and administration regimen
During the whole experiment process, the mice in normal control group (G1) were applied with 50 mg of vaseline once a day; and the mice in each model group (G2-G8) were applied with 50 mg of 40% monobenzone ointment once a day. After modeling for 53 days, the mice were grouped and subjected to drug treatment after grouping consecutively for 50 days. The modeling operation was maintained during the drug intervention period. The mice were applied with the drug twice a day for treatment at an interval of 6 hours or more. […]

[4] = tested on: monobenzone-induced mouse vitiligo model; test: Monobenzone-induced mouse vitiligo model: skin pathological analysis of melanin-containing hair follicles; assay type: in vivo, C57BL/6 mice; conditions: 1.5% ruxolitinib ointment
Description: The mice were euthanized within 2-4 hours after the last administration, and approximately 1 cm^2 of the skin in the center of the depilated part of the mice was taken and fixed with 4% paraformaldehyde. The animal skin tissues were fixed with 4% paraformaldehyde, dehydrated, embedded with paraffin, sectioned and then subjected to HE staining. The stained sections were photographed by white light panoramic scanning, histopathological changes of the skin tissues and inflammatory cell infiltration were observed, and the number of melanin-containing hair follicles and/or the proportion of the melanin-containing hair follicles in the skin were quantitatively analyzed. The panoramic scanning files were opened by using CaseViewer software, a picture view with the length of about 3.8 mm was randomly selected, and the pictures were saved. The number of all the hair follicles and the number of the melanin-containing hair follicles in the picture were counted respectively by using ipwin32 software. The proportion of the melanin-containing hair follicles was calculated according to the following formula: Proportion of melanin-containing hair follicles = number of melanin-containing follicles/number of all follicles

[5] = 30 mg topical twice a day for 50 days

Structure (SMILES): CCS(=O)(=O)N1CC(CC#N)(n2cc(-c3ncnc4[nH]ccc34)cn2)C1 [Baricitinib, reference compound]
- Hair growth rate (%) ([1]; listed as Positive control): 69.58 ± 3.23 %
- Hair growth rate (%) ([1]; listed as positive drug): 69.58 ± 3.23%
- Newly grown hair score ([1]; listed as Positive control): 4.2 ± 0.2
- Newly grown hair score ([1]; listed as positive drug): 4.2 ± 0.2
- Mean number of hair follicles ([2]; listed as Positive control): 40 ± 7.36
- Mean number of hair follicles ([2]; listed as positive drug): 40 ± 7.36

Structure (SMILES): N#CC[C@H](C1CCCC1)n1cc(-c2ncnc3[nH]ccc23)cn1 [ruxolitinib, reference compound]
- Hair depigmentation area scoring ([3]; Day 0 (before administration), 1.5% ruxolitinib ointment group): 3.90
- Hair depigmentation area scoring ([3]; Day 10, 1.5% ruxolitinib ointment, 30 mg topical twice a day): 3.80 **
- Hair depigmentation area scoring ([3]; Day 20, 1.5% ruxolitinib ointment, 30 mg topical twice a day): 3.70 **
- Hair depigmentation area scoring ([3]; Day 30, 1.5% ruxolitinib ointment, 30 mg topical twice a day): 3.40 **
- Hair depigmentation area scoring ([3]; Day 35, 1.5% ruxolitinib ointment, 30 mg topical twice a day): 2.90 **
- Hair depigmentation area scoring ([3]; Day 38, 1.5% ruxolitinib ointment, 30 mg topical twice a day): 2.60 **
- Hair depigmentation area scoring ([3]; Day 41, 1.5% ruxolitinib ointment, 30 mg topical twice a day): 2.40 **
- Hair depigmentation area scoring ([3]; Day 44, 1.5% ruxolitinib ointment, 30 mg topical twice a day): 2.30 **
- Hair depigmentation area scoring ([3]; Day 47, 1.5% ruxolitinib ointment, 30 mg topical twice a day): 2.20 **
- Hair depigmentation area scoring ([3]; Day 50, 1.5% ruxolitinib ointment, 30 mg topical twice a day): 2.20 **
- mean value of the reduction rate of the depigmentation area score ([3]; day 50, 1.5% ruxolitinib ointment, 30 mg (5 mg/cm^2) topical): 56.9%
- number of the melanin-containing hair follicles, times that of the model control group [4]: about 6 times
- Number of melanin-containing hair follicles [4, 5]: 41.7±16.7 and 41.7
- Proportion of melanin-containing hair follicles (%) [4, 5]: 29.8 ± 9.9% and 29.8%

Structure (SMILES): C=CC[C@@H]1/C=C(\C)C[C@H](C)C[C@H](OC)[C@H]2O[C@@](O)(C(=O)C(=O)N3CCCC[C@H]3C(=O)O[C@H](/C(C)=C/[C@@H]3CC[C@@H](O)[C@H](OC)C3)[C@H](C)[C@@H](O)CC1=O)[C@H](C)C[C@@H]2OC [tacrolimus, reference compound]
- Hair depigmentation area scoring ([3]; Day 0 (before administration), 0.03% tacrolimus ointment group): 3.60
- Hair depigmentation area scoring ([3]; Day 10, 0.03% tacrolimus ointment, 30 mg topical twice a day): 3.50
- Hair depigmentation area scoring ([3]; Day 20, 0.03% tacrolimus ointment, 30 mg topical twice a day): 3.40
- Hair depigmentation area scoring ([3]; Day 30, 0.03% tacrolimus ointment, 30 mg topical twice a day): 3.40
- Hair depigmentation area scoring ([3]; Day 35, 0.03% tacrolimus ointment, 30 mg topical twice a day): 2.60
- Hair depigmentation area scoring ([3]; Day 38, 0.03% tacrolimus ointment, 30 mg topical twice a day): 2.50
- Hair depigmentation area scoring ([3]; Day 41, 0.03% tacrolimus ointment, 30 mg topical twice a day): 2.30
- Hair depigmentation area scoring ([3]; Day 44, 0.03% tacrolimus ointment, 30 mg topical twice a day): 2.20
- Hair depigmentation area scoring ([3]; Day 47, 0.03% tacrolimus ointment, 30 mg topical twice a day): 2.20
- Hair depigmentation area scoring ([3]; Day 50, 0.03% tacrolimus ointment, 30 mg topical twice a day): 2.20
- reduction rate of the depigmentation area score ([3]; day 50, 0.03% tacrolimus ointment, compared with the model control group): 56.9%
